Results reported in patent US6579900B2, “Anandamide amidase inhibitors as analgesic agents” (priority 1996, dated 2003).
Where two headings read alike, the source gives them in different places.

Experiments:
anandamide amidase [1] = biological target: T1, anandamide amidase (Rattus norvegicus, UniProt P97612); assay: Anandamide amidase assay in vitro, crude rat brain homogenate; assay type: biochemical
T1 construct: Crude rat brain homogenate was obtained by decapitating female adult Sprague-Dawley rats, dissecting the desired tissue and homogenizing; from tissue; host or cells: crude brain homogenate of female adult Sprague-Dawley rats
T1 sequence (P97612 1-579): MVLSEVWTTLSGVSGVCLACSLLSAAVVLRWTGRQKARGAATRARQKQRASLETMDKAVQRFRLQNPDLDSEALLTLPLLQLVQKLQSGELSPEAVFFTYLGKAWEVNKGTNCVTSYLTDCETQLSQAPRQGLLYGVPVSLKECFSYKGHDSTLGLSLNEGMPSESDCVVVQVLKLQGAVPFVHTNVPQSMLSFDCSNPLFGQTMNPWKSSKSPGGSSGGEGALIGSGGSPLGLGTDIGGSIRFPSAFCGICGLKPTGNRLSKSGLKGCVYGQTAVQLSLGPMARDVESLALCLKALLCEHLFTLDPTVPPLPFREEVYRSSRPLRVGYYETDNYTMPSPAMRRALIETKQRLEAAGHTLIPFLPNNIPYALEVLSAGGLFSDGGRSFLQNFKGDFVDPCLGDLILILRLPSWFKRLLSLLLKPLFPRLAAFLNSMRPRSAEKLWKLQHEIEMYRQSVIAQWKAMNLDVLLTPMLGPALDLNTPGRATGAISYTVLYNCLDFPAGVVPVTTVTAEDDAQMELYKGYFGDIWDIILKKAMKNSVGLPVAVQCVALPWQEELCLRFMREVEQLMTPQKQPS
Procedure: The assay of the anandamide amidase in vitro was performed as described previously (Deutsch, D. G. and S. A. Chin, Biochem. Pharmacol. 46:791-796 (1993)). The indicated amount of each compound was preincubated in a buffer consisting of 300 μg of crude rat brain homogenate protein, 500 μg/ml fatty acid-free bovine serum albumin, in phosphate-buffered saline in a final volume of 1.0 ml, for 10 minutes at 37° C. Crude rat brain homogenate was obtained by decapitating female adult Sprague-Dawley rats, dissecting the desired tissue and homogenizing in five volumes of ice-cold TE (10 mM Tris-HCl, 1 mM EDTA, pH 7.6). Substrate (27.7 μM anandamide+0.2 μCi of 221 Ci/mmol [^3H]anandamide ([arachidonyl-5,6,8,9,11,12,14,15-^3H]ethanolamide)) (obtained from the National Institute on Drug Abuse) was then added and the samples incubated for 10 minutes. The reaction was quenched by the addition of chloroform:methanol (1:1) and enzyme activity was analyzed by TLC as described in Example 1.

anandamide amidase [2] = biological target: T2, anandamide amidase (Mus musculus, UniProt O08914); assay: Anandamide amidase assay in intact neuroblastoma cells ([3H]anandamide levels); assay type: cell-based
T2 construct: The assay of the anandamide amidase in intact neuroblastoma cells; endogenous in cells; host or cells: N18TG2 neuroblastoma cells
T2 sequence (O08914 1-579): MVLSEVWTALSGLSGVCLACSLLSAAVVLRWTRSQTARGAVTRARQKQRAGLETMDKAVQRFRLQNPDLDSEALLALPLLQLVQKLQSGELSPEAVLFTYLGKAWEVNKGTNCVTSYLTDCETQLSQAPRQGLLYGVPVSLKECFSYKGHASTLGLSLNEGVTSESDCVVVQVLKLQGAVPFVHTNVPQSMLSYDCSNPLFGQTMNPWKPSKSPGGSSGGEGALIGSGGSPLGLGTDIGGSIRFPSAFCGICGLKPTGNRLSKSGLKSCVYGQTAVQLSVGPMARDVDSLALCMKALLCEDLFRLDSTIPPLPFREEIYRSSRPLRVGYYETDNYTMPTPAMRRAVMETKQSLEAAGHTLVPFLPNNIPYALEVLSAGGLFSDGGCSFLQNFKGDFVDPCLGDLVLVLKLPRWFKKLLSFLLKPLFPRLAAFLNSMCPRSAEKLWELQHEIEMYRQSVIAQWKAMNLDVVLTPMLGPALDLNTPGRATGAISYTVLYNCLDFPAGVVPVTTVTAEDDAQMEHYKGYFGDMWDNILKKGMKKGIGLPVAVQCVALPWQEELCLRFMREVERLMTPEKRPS
Procedure: The experiments were performed with 4×10^6 neuroblastoma cells (N18TG2)/6-cm dish. Experimental cells were incubated in 2 ml of media, consisting of Ham's F-12/Dulbecco's modified Eagle's medium (Life Technologies, Inc.) with penicillin, streptomycin, and gentamicin plus 10% bovine calf serum (HyClone, Logan, Utah), plus the indicated concentration of inhibitor for 20 minutes. All cells were grown at 37° in a humidified atmosphere containing 5% CO2 in air. [^3H]Anandamide (0.2 μCi of 221 Ci/mmol of [^3H]anandamide) was added and the incubation continued for 1 hour. Control cells contained no inhibitor. At the end of the incubation, the cells were washed once with cell culture media and removed from the plates, after a brief incubation with 2 ml of 0.05% trypsin in 0.53 mM EDTA solution at 37° C. The amounts of [^3H]anandamide, [^3H]phospholipids, and [^3H]arachidonate in the cells and media were quantified by liquid scintillation counting of the silica scraped from the appropriate areas of the plate after quenching the reaction with chloroform methanol (1:1), extraction of the sample from the organic phase, and TLC analysis on channeled silica gel-coated plates, with a solvent system consisting of the organic layer of an ethyl acetate:hexane:acetic acid:water (100:50:20:100) mixture.

male MF1 mice = assay: Tail flick test of analgesia ("rat flick test"); details: mouse, in vivo
CB1 receptor = biological target: T3, CB1 receptor (Rattus norvegicus, UniProt P20272); details: rat brain membranes, FIG. 3; read-out: Ki in competition with [3H]CP-55940 binding to CB1
T3 construct: brain membranes were prepared from frozen rat brains; from tissue; host or cells: membranes from frozen rat brains
Procedure: The filters were treated with 0.1% sodium dodecyl sulfate prior to addition of scintillation mixture and counting in a liquid scintillation counter.

[3] = crude rat brain homogenate, 10 min preincubation at 37° C., read-out: IC50 for inhibition of anandamide amidase

T3 sequence (P20272 whole entry): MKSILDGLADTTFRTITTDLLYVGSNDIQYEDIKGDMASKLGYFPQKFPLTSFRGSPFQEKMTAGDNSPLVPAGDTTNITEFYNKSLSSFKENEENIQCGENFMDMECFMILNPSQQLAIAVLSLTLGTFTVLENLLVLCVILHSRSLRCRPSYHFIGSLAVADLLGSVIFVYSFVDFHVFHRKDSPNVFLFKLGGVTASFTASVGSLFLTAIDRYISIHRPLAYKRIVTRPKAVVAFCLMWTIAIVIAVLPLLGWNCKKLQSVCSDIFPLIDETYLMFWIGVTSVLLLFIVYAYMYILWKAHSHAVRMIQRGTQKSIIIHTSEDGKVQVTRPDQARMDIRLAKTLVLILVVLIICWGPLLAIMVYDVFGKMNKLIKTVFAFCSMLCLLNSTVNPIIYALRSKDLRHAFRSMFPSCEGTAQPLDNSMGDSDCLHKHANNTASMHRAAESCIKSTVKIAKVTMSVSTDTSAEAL

How did the “concentration at which effective inhibitor of anandamide amidase” value (anandamide amidase [1]; crude rat brain homogenate) turn out when CCCCCCCCCCCCCCCCCCCCS(=O)(=O)F [Arachidylsulfonyl fluoride, arachidylsulfonyl fluoride] was run?
The value was “less than 100 nM”.

How did the IC50 (anandamide amidase [1]; [3]) turn out when CCCCCCCCCCCCS(=O)(=O)F [laurylsulfonyl fluoride] was run?
Its IC50 is < 10 nM.

For CCCCCCCCCCCCCCS(=O)(=O)F [myristylsulfonyl fluoride], which IC50 (anandamide amidase [1]; [3]) is on record?
Its IC50 is < 10 nM.

CCCCCCCCCCCCCCCCS(=O)(=O)F [palmitylsulfonyl fluoride] was tested. Which “increase of the level of undegraded anandamide” value (anandamide amidase [2]; 10 nM inhibitor, intact neuroblastoma cells (N18TG2)) did it give?
Its value is 55 fold.

What about the IC50 (anandamide amidase [1]) of the same compound?
Its IC50 is < 10 nM.

And the “analgesia (in words)” value (male MF1 mice)?
The value was “induce analgesia”.

How did the “concentration required to achieve comparable levels of anandamide amidase inhibition” value (anandamide amidase [2]; comparable to over 50% of radioactivity in anandamide, N18TG2 cells) turn out when O=S(=O)(F)Cc1ccccc1 [phenylmethylsulfonyl fluoride, reference compound] was run?
The value was “greater than 10 micromolar”.

How did the IC50 (anandamide amidase [1]; [3]) turn out when CCCCCCCCCCCCCCCCCCS(=O)(=O)F [stearylsulfonyl fluoride] was run?
The IC50 was < 10 nM.

For arachidonyl trifluoromethyl ketone, which Ki (CB1 receptor) is on record?
Its Ki is 1320 nM.
